How the values were obtained:
[1] = In vitro metabolism in mouse and human liver microsomes and cytosols; assay type: in vitro ADME; conditions: for major metabolism in the presence of liver cytosol (aldehyde oxidase-mediated oxidation): 10 μM, 60 min, mouse and human; for glucuronide conjugates: with UDPGA
[2] = target: human ALK2 (Homo sapiens (Human), UniProt Q04771); assay: LANCE Ultra ULight enzymatic assay, ALK2; assay type: biochemical; conditions: 10 μM ATP
[3] = In vitro metabolism in human liver microsomes and cytosols; assay type: in vitro ADME

human ALK2, sequence (Q04771 21-509): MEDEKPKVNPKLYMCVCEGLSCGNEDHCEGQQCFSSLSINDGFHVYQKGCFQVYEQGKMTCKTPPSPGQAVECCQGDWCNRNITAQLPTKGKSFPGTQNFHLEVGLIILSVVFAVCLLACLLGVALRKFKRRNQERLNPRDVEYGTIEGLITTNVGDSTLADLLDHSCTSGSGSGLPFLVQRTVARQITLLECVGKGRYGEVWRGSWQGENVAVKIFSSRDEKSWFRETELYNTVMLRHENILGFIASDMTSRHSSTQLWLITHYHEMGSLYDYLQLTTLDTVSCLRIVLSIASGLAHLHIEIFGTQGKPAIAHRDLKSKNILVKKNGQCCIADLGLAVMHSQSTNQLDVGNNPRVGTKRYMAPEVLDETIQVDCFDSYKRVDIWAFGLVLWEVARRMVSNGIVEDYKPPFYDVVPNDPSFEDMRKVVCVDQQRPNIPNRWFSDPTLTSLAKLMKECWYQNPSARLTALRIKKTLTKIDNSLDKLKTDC

## c1ccc2c(-c3cnn4cc(-c5ccc(C6CCNCC6)cc5)cnc34)ccnc2c1 [Compound 48]
[1]
  major metabolism in the presence of liver cytosol (aldehyde oxidase-mediated oxidation): metabolized mainly through the oxidation of the quinoline ring
  glucuronide conjugates: not observed
[1]; GSH 2 mM
  GSH trapping of soft electrophiles: not observed
[1]; KCN 0.1 mM
  cyanide adducts (reactive intermediate trapping with KCN): not observed

## Cc1ccc2c(-c3cnn4cc(-c5ccc(OCCN6CCCCC6)cn5)cnc34)cccc2n1 [Compound 48′, 2-methyl-5-(6-(5-(2-(piperidin-1-yl)ethoxy)pyridin-2-yl)pyrazolo[1,5-a]pyrimidin-3-yl)quinoline]
[2]
  IC50: 85 nM

## C[C@@H]1CNC[C@H](C)N1c1ccc(-c2cnc3c(-c4ccnc5ccccc45)cnn3c2)cc1 [compound 2, 4-(6-(4-((2R,6S)-2,6-dimethylpiperazin-1-yl)phenyl)pyrazolo[1,5-a]pyrimidin-3-yl)quinoline]
[1]
  major metabolism in the presence of liver cytosol (aldehyde oxidase-mediated oxidation): oxidation of the alpha-carbon of quinoline nitrogen, leading to M450c
  glucuronide conjugates: not observed

## Cc1cc(-c2cnn3cc(-c4ccc(N5CCNCC5)nc4)cnc23)c2ccccc2n1 [compound 12, 2-methyl-4-(6-(6-(piperazin-1-yl)pyridin-3-yl)pyrazolo[1,5-a]pyrimidin-3-yl)quinoline]
[3]; 10 μM, 1 hr, HLM + human cytosol
  oxidative metabolites in incubation without NADPH (AO mediated metabolism): Oxidative metabolites were not observed
[3]; KCN 1 mM
  cyanide adduct (KCN trapping): A major cyanide adduct was observed
[3]; UDPGA 4 mM
  glucuronide conjugates: Glucuronide conjugates were not observed
[3]; human liver microsomal preparations
  aniline metabolites: An aniline derivative was observed

From patent US10017516B2, “BMP inhibitors and methods of use thereof” (The Brigham and Women's Hospital, Inc., priority 2013, dated 2018)
